Measured values as given in patent US20260256792A1, “TREATMENT OF CHRONIC SPONTANEOUS URTICARIA BY ADMINISTERING (R)-2-[3-[4-AMINO-3-(2-FLUORO-4-PHENOXY-PHENYL)PYRAZOLO[3,4-D]PYRIMIDIN-1-YL]PIPERIDINE-1-CARBONYL]-4-METHYL-4-[4-(OXETAN-3-YL)PIPERAZIN-1-YL]PENT-2-ENENITRILE” (priority 2023, published 2026).

Test system: moderate-to-severe chronic spontaneous urticaria (CSU)
Experiment: Phase 2 CSU study: hives severity score over 7 days (HSS7)
Assay type: in vivo, human
Parameters: key to HSS7 Change from baseline, Median / HSS7, Median / HSS7, Max / HSS7 Change from baseline, Q1 / HSS7 Change from baseline, Q3 / HSS7 Change from baseline, Max: 7-day sum of daily hive scores, each 0 = none to 3 = >50 hives
Text: The study comprises a 12 week, randomized, double-blind, placebo-controlled, multi-center, dose-ranging efficacy and safety phase, followed by a 40 week open label extension (OLE) phase (see FIG. 1).
The study consists of three phases and an optional OLE phase.
The UAS is a validated PRO measure. The daily UAS is the sum of the daily Hive Severity Score (HSS, ranging from 0=None to 3=more than 50 hives) and the daily Itch Severity Score (ISS, ranging from 0=None to 3=intense), the 2 key urticaria signs and symptoms which are wheals and itch. The daily UAS scores range from 0 to 6 point/day. Daily UAS scores are summed over 7-day period to create the UAS7, ranging from 0 to 42, and are composed of the HSS7 and ISS7 components. […] Patients were to complete the UAS using the e-diary. The e-diary was to be used once daily on the same time of each day recording of participant's answers to the urticaria activity score over 7 days (UAS7) questionnaire. For participants who entered the OLE phase, their answers to the UAS7 questionnaire were also to be collected from Week 20 to Week24 and from Week 48 to Week 52.
The following secondary endpoints were to be analyzed using the same approach as for the primary endpoint: • Change from baseline in UAS7 at Week 4 • Change from baseline in UAS7 at Week 12 (for US and US reference countries) • Change from baseline in ISS7 at Week 12 (except US and US reference countries) • Change from baseline in HSS7 at Week 12

[1] = Week 1, 400 mg BID, Omalizumab-Naïve Population
[2] = Week 1, 400 mg BID, Patients with Prior Omalizumab Use
[3] = Week 1, 400 mg QPM, Omalizumab-Naïve Population
[4] = Week 1, 400 mg QPM, Patients with Prior Omalizumab Use
[5] = Week 1, 400 mg TID, Omalizumab-Naïve Population
[6] = Week 1, 400 mg TID, Patients with Prior Omalizumab Use
[7] = Week 2, 400 mg BID, Omalizumab-Naïve Population
[8] = Week 2, 400 mg BID, Patients with Prior Omalizumab Use
[9] = Week 2, 400 mg QPM, Omalizumab-Naïve Population
[10] = Week 2, 400 mg QPM, Patients with Prior Omalizumab Use
[11] = Week 2, 400 mg TID, Omalizumab-Naïve Population
[12] = Week 2, 400 mg TID, Patients with Prior Omalizumab Use
[13] = Week 3, 400 mg BID, Omalizumab-Naïve Population
[14] = Week 3, 400 mg BID, Patients with Prior Omalizumab Use
[15] = Week 3, 400 mg QPM, Omalizumab-Naïve Population
[16] = Week 3, 400 mg QPM, Patients with Prior Omalizumab Use
[17] = Week 3, 400 mg TID, Omalizumab-Naïve Population
[18] = Week 3, 400 mg TID, Patients with Prior Omalizumab Use

SMILES: CC(C)(C=C(C#N)C(=O)N1CCC[C@@H](n2nc(-c3ccc(Oc4ccccc4)cc3F)c3c(N)ncnc32)C1)N1CCN(C2COC2)CC1 [rilzabrutinib, (R)-2-[3-[4-amino-3-(2-fluoro-4-phenoxy-phenyl)pyrazolo[3,4-d]pyrimidin-1-yl]piperidine-1-carbonyl]-4-methyl-4-[4-(oxetan-3-yl)piperazin-1-yl]pent-2-enenitrile]
- HSS7 change from baseline at Week 12, LS Mean Diff vs. placebo (Omalizumab-naïve Population, 400 mg TID, ANCOVA): −3.24
- HSS7, Mean (SD) [1]: 9.26 (5.76)
- HSS7 Change from baseline, Mean (SD) [1]: −5.02 (4.53)
- HSS7 Change from baseline, Median [1]: −5.00
- HSS7 Percent change from baseline, Mean (SD) [1]: −36.53 (34.65) %
- HSS7 Percent change from baseline, Median [1]: −28.57%
- HSS7, Mean (SD) [2]: 9.67 (6.41)
- HSS7 Change from baseline, Mean (SD) [2]: −5.50 (6.41)
- HSS7 Change from baseline, Median [2]: −3.00
- HSS7 Percent change from baseline, Mean (SD) [2]: −34.45 (41.48) %
- HSS7 Percent change from baseline, Median [2]: −17.65%
- HSS7, Mean (SD) [3]: 10.73 (4.90)
- HSS7 Change from baseline, Mean (SD) [3]: −4.00 (4.92)
- HSS7 Change from baseline, Median [3]: −3.00
- HSS7 Percent change from baseline, Mean (SD) [3]: −25.31 (29.00) %
- HSS7 Percent change from baseline, Median [3]: −20.00%
- HSS7, Mean (SD) [4]: 12.00 (NC)
- HSS7, Median [4]: 12.00
- HSS7 Change from baseline, Mean (SD) [4]: −8.00 (NC)
- HSS7 Change from baseline, Median [4]: −8.00
- HSS7 Percent change from baseline, Mean (SD) [4]: −40.00 (NC) %
- HSS7 Percent change from baseline, Median [4]: −40.00%
- HSS7, Mean (SD) [5]: 8.26 (4.91)
- HSS7, Median [5]: 8.00
- HSS7 Change from baseline, Mean (SD) [5]: −5.40 (5.44)
- HSS7 Change from baseline, Median [5]: −5.00
- HSS7 Percent change from baseline, Mean (SD) [5]: −36.74 (35.15) %
- HSS7 Percent change from baseline, Median [5]: −33.33%
- HSS7, Mean (SD) [6]: 4.83 (3.31)
- HSS7, Median [6]: 4.50
- HSS7 Change from baseline, Mean (SD) [6]: −11.19 (4.74)
- HSS7 Percent change from baseline, Mean (SD) [6]: −70.33 (16.48) %
- HSS7 Percent change from baseline, Median [6]: −71.43%
- HSS7, Mean (SD) [7]: 9.27 (5.49)
- HSS7, Median [7]: 7.50
- HSS7 Change from baseline, Mean (SD) [7]: −5.10 (4.74)
- HSS7 Change from baseline, Median [7]: 5.50
- HSS7 Percent change from baseline, Mean (SD) [7]: −35.29 (34.55) %
- HSS7 Percent change from baseline, Median [7]: −37.50%
- HSS7, Mean (SD) [8]: 8.17 (7.08)
- HSS7, Median [8]: 9.50
- HSS7 Change from baseline, Mean (SD) [8]: −7.00 (8.15)
- HSS7 Change from baseline, Median [8]: −4.50
- HSS7 Percent change from baseline, Mean (SD) [8]: −42.16 (46.38) %
- HSS7 Percent change from baseline, Median [8]: −26.47%
- HSS7, Mean (SD) [9]: 10.90 (4.97)
- HSS7 Change from baseline, Mean (SD) [9]: −3.83 (4.91)
- HSS7 Change from baseline, Median [9]: 3.00
- HSS7 Percent change from baseline, Mean (SD) [9]: −23.50 (30.60) %
- HSS7 Percent change from baseline, Median [9]: −21.43%
- HSS7, Mean (SD) [10]: 13.00 (NC)
- HSS7, Median [10]: 13.00
- HSS7 Change from baseline, Mean (SD) [10]: −7.00 (NC)
- HSS7 Change from baseline, Median [10]: −7.00
- HSS7 Percent change from baseline, Mean (SD) [10]: −35.00 (NC) %
- HSS7 Percent change from baseline, Median [10]: −35.00%
- HSS7, Mean (SD) [11]: 7.25 (5.05)
- HSS7, Median [11]: 7.00
- HSS7 Change from baseline, Mean (SD) [11]: −6.40 (5.94)
- HSS7 Change from baseline, Median [11]: −6.00
- HSS7 Percent change from baseline, Mean (SD) [11]: −44.30 (37.78) %
- HSS7 Percent change from baseline, Median [11]: −42.86%
- HSS7, Mean (SD) [12]: 2.83 (3.31)
- HSS7, Median [12]: 1.50
- HSS7 Change from baseline, Mean (SD) [12]: −13.19 (5.74)
- HSS7 Change from baseline, Median [12]: −14.00
- HSS7 Percent change from baseline, Mean (SD) [12]: -82.7%
- HSS7 Percent change from baseline, Median [12]: −81.38%
- HSS7, Mean (SD) [13]: 8.55 (6.09)
- HSS7, Median [13]: 7.00
- HSS7 Change from baseline, Mean (SD) [13]: −5.73 (5.31)
- HSS7 Change from baseline, Median [13]: −5.00
- HSS7 Percent change from baseline, Mean (SD) [13]: −40.65 (36.39) %
- HSS7 Percent change from baseline, Median [13]: −41.67%
- HSS7, Mean (SD) [14]: 7.67 (7.00)
- HSS7, Median [14]: 7.50
- HSS7 Change from baseline, Mean (SD) [14]: −7.50 (8.22)
- HSS7 Change from baseline, Median [14]: −6.00
- HSS7 Percent change from baseline, Mean (SD) [14]: −45.10 (46.71) %
- HSS7 Percent change from baseline, Median [14]: −35.29%
- HSS7, Mean (SD) [15]: 10.41 (4.97)
- HSS7, Median [15]: 9.00
- HSS7 Change from baseline, Mean (SD) [15]: −4.32 (4.60)
- HSS7 Change from baseline, Median [15]: −2.00
- HSS7 Percent change from baseline, Mean (SD) [15]: −27.98 (28.68) %
- HSS7 Percent change from baseline, Median [15]: −28.57%
- HSS7, Mean (SD) [16]: 10.00 (NC)
- HSS7 Change from baseline, Mean (SD) [16]: −10.00 (NC)
- HSS7 Change from baseline, Median [16]: −10.00
- HSS7 Percent change from baseline, Mean (SD) [16]: −50.00 (NC) %
- HSS7 Percent change from baseline, Median [16]: −50.00%
- HSS7, Mean (SD) [17]: 7.03 (4.82)
- HSS7, Median [17]: 7.00
- HSS7 Change from baseline, Mean (SD) [17]: −6.63 (6.22)
- HSS7 Change from baseline, Median [17]: −7.00
- HSS7 Percent change from baseline, Mean (SD) [17]: −47.46 (36.18) %
- HSS7 Percent change from baseline, Median [17]: −48.81%
- HSS7, Mean (SD) [18]: 3.39 (2.63)
- HSS7, Median [18]: 2.67
- HSS7 Change from baseline, Mean (SD) [18]: −12.64 (6.13)
- HSS7 Change from baseline, Median [18]: −14.50
- HSS7 Percent change from baseline, Mean (SD) [18]: −76.71 (14.38) %
- HSS7 Percent change from baseline, Median [18]: −71.43%
